From ChEMBL document CHEMBL1201862, “PubChem BioAssay data set” (2004) come the findings set out here.

What all share (experiment): NCI-60 cell line screen, 48 h
Test [1] has as its system MCF7.
The test system of test [2] is MDA-MB-435.
The test system of test [3] is HCT-116.
Test [4] concerns ACHN.
In test [5] the test system is COLO 205.
Test [6] deals with NCI/ADR-RES.
For test [7], the system named is SF-268.
Test [8] has as its system IGROV-1.
Test [9] deals with MDA-N.
In test [10] the test system is U-251.
The subject of test [11] is RPMI-8226.
In test [12] the test system is NCI-H522.
Test [13] deals with PC-3.
In test [14] the test system is Malme-3M.
The test system of test [15] is OVCAR-3.
Test [16] concerns MOLT-4.
Test [17] relates to UACC-257.
The subject of test [18] is HOP-92.
For test [19], the system named is 786-0.
Test [20] has as its system HOP-62.

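Each compound was tested at five concentrations against cells in 96-well plates for 48 hours. The concentration for 50% growth inhibition is given as GI50.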 Active and inactive are the calls of the source. Rule as the data show it: active = GI50 up to about 1.1 µM and inactive = higher. A value given as a limit tells only on which side of the number the result lay.

As to `c1ccc(C(c2cccc3c2ccc2ccccc23)C(c2ccccc2)c2cccc3c2ccc2ccccc23)cc1` (centres undefined), the GI50 in [1], in [2], in test [3], in [4], in test [5] and in test [6] was > 100 µM (inactive) each time. Also, the GI50 in test [7], in [8], in test [9], in test [10], in test [11] and in test [12] was > 100 µM (inactive) each time. Moreover, the GI50 in [13], in [14], in [15], in test [16], in test [17] and in test [18] was > 100 µM (inactive) each time. The GI50 in [19] and in test [20] was > 100 µM (inactive) throughout.
With `COc1ccc(C(=O)CCN(C)C)c2ccccc12`, the GI50 in test [1] was 4.63 µM (inactive); in test [2], 19.5 µM (inactive); in [3], 21.8 µM (inactive); in test [4] it was 18.3 µM (inactive); in [5] it was 18.6 µM (inactive); in [6], 35.9 µM (inactive). The GI50 in [7] was 21.9 µM (inactive); in test [8], 19.4 µM (inactive); in [9] it was 21.1 µM (inactive); in test [10] it was 18.2 µM (inactive); in test [11], 0.504 µM (active); in test [12], 5.21 µM (inactive). Further, the GI50 in [13] was 17.6 µM (inactive); in [14], 17.8 µM (inactive); in test [15] it was 16.3 µM (inactive); in [16], 17.9 µM (inactive); in test [17], > 40.9 µM (inactive); in [18], 19.5 µM (inactive). The values for the GI50 in test [19] and in test [20] were 5.93 µM (inactive) and 24.1 µM (inactive), respectively.
As for `CCCCCCCCCCCC(=O)N(CCCCCCCCC)CC(O)C(O)C(OC1OC(CO)C(O)C(O)C1O)C(O)CO` (centres undefined), the GI50 was 35.8 µM (inactive) in [1]; 17.7 µM (inactive) in [2]; 17.7 µM (inactive) in [3]; 17.7 µM (inactive) in test [4]; 20.7 µM (inactive) in test [5]; 20.1 µM (inactive) in test [6]. For the same compound, the GI50 was 19.4 µM (inactive) in test [7]; 18.3 µM (inactive) in test [8]; 20.4 µM (inactive) in [9]; 20.4 µM (inactive) in test [10]; 34 µM (inactive) in test [11]; 22.1 µM (inactive) in [12]. The GI50 in [13] was 19.2 µM (inactive); in test [14] it was 19.5 µM (inactive); in test [15], 20.2 µM (inactive); in test [16], 23.2 µM (inactive); in test [17], 16.9 µM (inactive); in [18], 18.6 µM (inactive). Moreover, the GI50 in test [19] was 17.5 µM (inactive); in test [20], 20.6 µM (inactive).
For the compound `O=[N+]([O-])c1ccc(S(=O)(=O)Cc2ccccc2)c2nonc12`, the GI50 is 20.2 µM (inactive) in test [1]; 19.2 µM (inactive) in [2]; 17.3 µM (inactive) in test [3]; 22 µM (inactive) in [4]; 16.4 µM (inactive) in [5]; 27 µM (inactive) in [6]. In addition, the GI50 in [7] is 20 µM (inactive); in test [8], 18.8 µM (inactive); in test [9], 19 µM (inactive); in test [10] it was 18.2 µM (inactive); in test [11], 25.1 µM (inactive); in test [12] it was 18.8 µM (inactive). The GI50 in test [13] is 17.8 µM (inactive); in [14] it was 17.9 µM (inactive); in [15], 20.8 µM (inactive); in test [16], 18.7 µM (inactive); in test [17] it was 16.1 µM (inactive); in test [18], 19.9 µM (inactive). Moreover, the figures for the GI50 in [19] and in test [20] were 19.6 µM (inactive) and 22.7 µM (inactive), respectively.
Turning to `COc1ccc(C2C3CCc4ccccc4C3=NN2S(=O)(=O)c2ccc(Cl)cc2)cc1` (centres undefined), the GI50 in test [1] was 4.13 µM (inactive); in test [2], 2.07 µM (inactive); in test [3], 18.3 µM (inactive); in test [4], 15.4 µM (inactive); in [5], 6.01 µM (inactive); in test [6], 5 µM (inactive). In addition, the GI50 in [7] was 18.4 µM (inactive); in test [8] it was 2.61 µM (inactive); in test [9], 2.81 µM (inactive); in test [10], 17.6 µM (inactive); in test [11], 14 µM (inactive); in test [12] it was 9.14 µM (inactive). Further, the GI50 in test [13] is 17.1 µM (inactive); in [14] it was 59.3 µM (inactive); in test [15], 16.6 µM (inactive); in test [16], 13.1 µM (inactive); in test [17], 17.3 µM (inactive); in test [18] it was 20 µM (inactive). The GI50 was 6.93 µM (inactive) in [19] and 31.8 µM (inactive) in [20].
As to `Cc1ccc(/C=C2\CN(C)CC3=C2OC(N)=C(C#N)C3c2ccc(C)cc2)cc1` (centres undefined), the GI50 is 18 µM (inactive) in [1]; 15.8 µM (inactive) in [2]; 12.6 µM (inactive) in test [3]; 18.8 µM (inactive) in test [4]; 17 µM (inactive) in [5]; 20.7 µM (inactive) in [6]. The GI50 is 30.1 µM (inactive) in [7]; 7.5 µM (inactive) in test [8]; 17.2 µM (inactive) in test [9]; 34.7 µM (inactive) in [10]; 9.98 µM (inactive) in [11]; 12.2 µM (inactive) in test [12]. For the same compound, the GI50 in test [13] was 15.7 µM (inactive); in [14] it was 20.3 µM (inactive); in [15], 12.1 µM (inactive); in test [16], 7.76 µM (inactive); in test [17] it was 18.8 µM (inactive); in [18] it was 1.05 µM (active). Also, the GI50 in test [19] was 15.6 µM (inactive); in test [20] it was 22.7 µM (inactive).
For `CC(=O)OCC1OC(OC2CC3C(C)(C)C(OC(C)=O)CC[C@]3(C)C3CCC45CC4(CCC5[C@@H](C)C[C@H](O)C(O)C(C)(C)O)[C@]23C)C(O)C(O)C1O` (some centres undefined), the GI50 in test [1] is 6.61 µM (inactive); in [2], > 10 µM (inactive); in test [3], > 10 µM (inactive); in test [4], > 10 µM (inactive); in [5], > 10 µM (inactive); in test [6], > 10 µM (inactive). In addition, the GI50 is > 10 µM (inactive) in test [7]; > 10 µM (inactive) in test [8]; > 10 µM (inactive) in test [9]; > 10 µM (inactive) in test [10]; 5.18 µM (inactive) in test [11]; > 10 µM (inactive) in test [12]. The GI50 was > 10 µM (inactive) in [13]; > 10 µM (inactive) in test [14]; > 10 µM (inactive) in test [15]; > 10 µM (inactive) in [16]; > 10 µM (inactive) in test [17]; 9.44 µM (inactive) in [18]. The GI50 in [19] and in [20] was > 10 µM (inactive) throughout.
In the case of `CCOP1(=O)CC(C)=C(Cl)C(OC)C1` (centres undefined), the GI50 in test [1], in test [2], in test [3], in test [4], in test [5] and in test [6] was > 100 µM (inactive) in each case. Besides, the GI50 is > 100 µM (inactive) in test [7]; > 100 µM (inactive) in test [8]; > 100 µM (inactive) in test [9]; > 100 µM (inactive) in test [10]; > 100 µM (inactive) in test [11]; 34 µM (inactive) in test [12]. The GI50 in test [13], in test [14], in test [15], in test [16], in test [17] and in [18] was > 100 µM (inactive) in each case. The GI50 in test [19] and in test [20] was > 100 µM (inactive) each time.
For `COc1ccc2oc(S(=O)(=O)N3CC(CCl)c4ccc(N)cc43)cc2c1` (centres undefined), the GI50 in [1] is 0.0253 µM (active); in test [2], 0.0113 µM (active); in test [3], 0.0419 µM (active); in test [4], 0.12 µM (active); in test [5] it was 2.11 µM (inactive); in [6] it was 0.0377 µM (active). Also, the GI50 in test [7] is 2.01 µM (inactive); in test [8], 0.0445 µM (active); in test [9], 0.0104 µM (active); in [10], 0.0429 µM (active); in [11], 0.0482 µM (active); in test [12] it was 0.0184 µM (active). The GI50 in [13] is 0.0299 µM (active); in [14], 0.043 µM (active); in test [15] it was 0.0395 µM (active); in [16] it was 0.0652 µM (active); in test [17], 0.766 µM (active); in test [18], 8.79 µM (inactive). Also, the values for the GI50 in test [19] and in test [20] were 0.0264 µM (active) and 0.565 µM (active), respectively.
As to `N#CC12C(=O)N3C(=NC(c4ccco4)NC3c3ccco3)C1(C#N)C(c1ccco1)NC1=C2CCCC1` (centres undefined), the GI50 in [1], in test [2], in [3], in [4], in test [5] and in test [6] was > 100 µM (inactive) throughout. Further, the GI50 in test [7] was > 100 µM (inactive); in [8], > 100 µM (inactive); in test [9], > 100 µM (inactive); in test [10] it was > 100 µM (inactive); in test [11], > 100 µM (inactive); in [12], 73.1 µM (inactive). Further, the GI50 in test [13], in test [14], in [16], in [17], in [18] and in test [19] was > 100 µM (inactive) each time. Also, in [20], the GI50 is > 100 µM (inactive).
